Results as given in patent publication US8962843B2, “1,3,4-oxadiazole and 1,3,4-thiadiazole beta-lactamase inhibitors” (priority 2012, dated 2015).
Structures can show the parent of a compound that is named as a salt.

Each molecule was assayed on bacterial strains that express the class D cephalosporinase OXA-15 (assay: Standard BLI potentiation MIC / synergy MIC assays, strains expressing OXA-15). Settings: in combination with a β-lactam; comparator Avibactam (CCC).
Assay type: cell-based, E. coli
Protocol: The experimental protocol was performed according to Clinical and Laboratory Standards Institute (CLSI) guidelines with modifications as described below (CLSI guidelines can be derived from the CLSI document M07-A9 published in January 2012: “Methods for Dilution Antimicrobial Susceptibility Tests for Bacteria That Grow Aerobically; Approved Standard-Ninth Edition”).
To prepare for MIC testing, frozen glycerol stocks of clinical isolates (Klebsiella pneumoniae, Eschericia coli, Enterobacter spp, Citrobacter spp, or Pseudomonas aeruginosa) were used to streak for isolated colonies on rich, non-selective, tryptic soy agar containing 5% sheep's blood (TSAB). Frozen glycerol stocks of laboratory engineered, isogenic E. coli strains, which contain cloned β-lactamase expressing plasmids were used to streak for isolated colonies on rich, selective LB agar supplemented with 25 μg/mL tetracycline to maintain the plasmid. All strains were incubated at 37° C. for 18-24 hrs.
On the day of testing, primary cultures were started by scraping off 5-10 colonies from the TSAB plates containing clinical strains or the tetracycline supplemented LB plates containing engineered strains. The clinical strain material was suspended in ˜5 mL of cation adjusted Mueller Hinton Broth (CAMHB) in 14 mL culture tubes. The engineered strain material was suspended in CAMHB (supplemented with 25 μg/mL tetracycline) in 14 mL culture tubes. All strains were incubated at 37° C. with aeration (200 rpm) for ˜2 hrs until the optical density at 600 nm (OD600) was >0.1.
The two compound components of the assay were each diluted in CAMHB and added to the 96-well broth microdilution assay plates. 50 μL of the β-lactam was added to each well of the assay plate in 2-fold dilutions with final concentrations ranging from 128 to 0.13 μg/mL. 25 μL of the BLI compound was added to all wells in the broth microdilution plates at a final concentration of 4 μg/mL. Inoculum cultures were prepared by standardizing the primary cultures to OD600=0.1 and then adding 20 μL of the adjusted primary culture per 1 mL CAMHB for clinical strains or CAMHB (supplemented with tetracycline at 100 μg/mL) for engineered strains, so that the final inoculum density was ˜10^5 colony forming units per milliliter. Diluted inoculum cultures were used to inoculate 25 μl, per well in 96-well broth microdilution assay plates. The final volume of each well was 100 μL and contained a β-lactam at different concentrations, a BLlcompound at 4 μg/mL concentration, the bacterial culture at an OD600 of approximately 0.001 and when necessary tetracycline at 25 μg/mL.
Plates were incubated for 18-20 hours at 37° C. with aeration (200 rpm). Following incubation, growth was confirmed visually placing plates over a viewing apparatus (stand with a mirror underneath) and then OD600 was measured using a SpectraMax 340PC384 plate reader (Molecular Devices, Sunnyvale, Calif.). Growth was defined as turbidity that could be detected with the naked eye or achieving minimum OD600 of 0.1. MIC values were defined as the lowest concentration producing no visible turbidity.
The synergy MIC (sMIC) assay determines the concentration of the BLI required to potentiate the activity of a fixed concentration of a β-lactam antibiotic against β-lactamase producing bacterial strains. The experimental protocol was performed according to Clinical and Laboratory Standards Institute (CLSI) guidelines with modifications as described below (CLSI guidelines can be derived from the CLSI document M07-A9 published in January 2012: “Methods for Dilution Antimicrobial Susceptibility Tests for Bacteria That Grow Aerobically; Approved Standard-Ninth Edition”). […]

| Compound | activity against bacterial strains that express the class D cephalosporinase OXA-15, compared with Avibactam |
| --- | --- |
| NCCNCCc1nnc([C@@H]2CC[C@@H]3CN2C(=O)N3OS(=O)(=O)O)o1 [Compound 716, (2S,5R)-2-(5-(2-((2-aminoethyl)amino)ethyl)-1,3,4-oxadiazol-2-yl)-7-oxo-1,6-diazabicyclo[3.2.1]octan-6-yl hydrogen sulfate] | more active than Avibactam |
| O=C1N2C[C@@H](CC[C@H]2c2nnc(CC3CNC3)o2)N1OS(=O)(=O)O [Compound 725, (2S,5R)-2-(5-(azetidin-3-ylmethyl)-1,3,4-oxadiazol-2-yl)-7-oxo-1,6-diazabicyclo[3.2.1]octan-6-yl hydrogen sulfate] | more active than Avibactam |
| N=C(N)NCCCc1nnc([C@@H]2CC[C@@H]3CN2C(=O)N3OS(=O)(=O)O)o1 [Compound 714, (2S,5R)-2-(5-(3-guanidinopropyl)-1,3,4-oxadiazol-2-yl)-7-oxo-1,6-diazabicyclo[3.2.1]octan-6-yl hydrogen sulfate] | more active than Avibactam |
| O=C1N2C[C@@H](CC[C@H]2c2nnc(CNC3CCNCC3)o2)N1OS(=O)(=O)O [Compound 769, (2S,5R)-7-oxo-2-(5-((piperidin-4-ylamino)methyl)-1,3,4-oxadiazol-2-yl)-1,6-diazabicyclo[3.2.1]octan-6-yl hydrogen sulfate] | more active than Avibactam |
| N[C@H]1C[C@H](NCc2nnc([C@@H]3CC[C@@H]4CN3C(=O)N4OS(=O)(=O)O)o2)C1 [Compound 757, (2S,5R)-2-(5-((((1r,3S)-3-aminocyclobutyl)amino)methyl)-1,3,4-oxadiazol-2-yl)-7-oxo-1,6-diazabicyclo[3.2.1]octan-6-yl hydrogen sulfate] | more active than Avibactam |
| NCC(N)c1nnc([C@@H]2CC[C@@H]3CN2C(=O)N3OS(=O)(=O)O)o1 (stereo partly drawn) [Compound 717, (2S,5R)-2-(5-(1,2-diaminoethyl)-1,3,4-oxadiazol-2-yl)-7-oxo-1,6-diazabicyclo[3.2.1]octan-6-yl hydrogen sulfate] | more active than Avibactam |
| N=C(N)NCc1nnc([C@@H]2CC[C@@H]3CN2C(=O)N3OS(=O)(=O)O)o1 [Compound 704, (2S,5R)-2-(5-(guanidinomethyl)-1,3,4-oxadiazol-2-yl)-7-oxo-1,6-diazabicyclo[3.2.1]octan-6-yl hydrogen sulfate] | more active than Avibactam |
| N[C@H]1CC[C@@H](c2nnc([C@@H]3CC[C@@H]4CN3C(=O)N4OS(=O)(=O)O)o2)CC1 [Compound 780, (2S,5R)-2-(5-((1s,4R)-4-aminocyclohexyl)-1,3,4-oxadiazol-2-yl)-7-oxo-1,6-diazabicyclo[3.2.1]octan-6-yl hydrogen sulfate] | more active than Avibactam |
| O=C1N2C[C@@H](CC[C@H]2c2nnc(C3CCNCC3)s2)N1OS(=O)(=O)O [Compound 719, (2S,5R)-7-oxo-2-(5-(piperidin-4-yl)-1,3,4-thiadiazol-2-yl)-1,6-diazabicyclo[3.2.1]octan-6-yl hydrogen sulfate] | more active than Avibactam |
| N[C@H]1CC[C@H](c2nnc([C@@H]3CC[C@@H]4CN3C(=O)N4OS(=O)(=O)O)o2)CC1 [Compound 781, (2S,5R)-2-(5-((1r,4S)-4-aminocyclohexyl)-1,3,4-oxadiazol-2-yl)-7-oxo-1,6-diazabicyclo[3.2.1]octan-6-yl hydrogen sulfate] | more active than Avibactam |
| NCC(O)Cc1nnc([C@@H]2CC[C@@H]3CN2C(=O)N3OS(=O)(=O)O)o1 (stereo partly drawn) [Compound 733, (2S,5R)-2-(5-(3-amino-2-hydroxypropyl)-1,3,4-oxadiazol-2-yl)-7-oxo-1,6-diazabicyclo[3.2.1]octan-6-yl hydrogen sulfate] | more active than Avibactam |
| O=C1N2C[C@@H](CC[C@H]2c2nnc(CCCN3CCNCC3)o2)N1OS(=O)(=O)O [Compound 792, (2S,5R)-7-oxo-2-(5-(3-(piperazin-1-yl)propyl)-1,3,4-oxadiazol-2-yl)-1,6-diazabicyclo[3.2.1]octan-6-yl hydrogen sulfate] | more active than Avibactam |
| NC1CCN(c2nnc([C@@H]3CC[C@@H]4CN3C(=O)N4OS(=O)(=O)O)o2)CC1 [Compound 773, (2S,5R)-2-(5-(4-aminopiperidin-1-yl)-1,3,4-oxadiazol-2-yl)-7-oxo-1,6-diazabicyclo[3.2.1]octan-6-yl hydrogen sulfate] | more active than Avibactam |
| N=C(N)N1CCC(c2nnc([C@@H]3CC[C@@H]4CN3C(=O)N4OS(=O)(=O)O)o2)CC1 [Compound 712, (2S,5R)-2-(5-(1-carbamimidoylpiperidin-4-yl)-1,3,4-oxadiazol-2-yl)-7-oxo-1,6-diazabicyclo[3.2.1]octan-6-yl hydrogen sulfate] | more active than Avibactam |
| O=C1N2C[C@@H](CC[C@H]2c2nnc(N3CCNCC3)o2)N1OS(=O)(=O)O [Compound 713, (2S,5R)-7-oxo-2-(5-(piperazin-1-yl)-1,3,4-oxadiazol-2-yl)-1,6-diazabicyclo[3.2.1]octan-6-yl hydrogen sulfate] | more active than Avibactam |
| Nc1nnc([C@@H]2CC[C@@H]3CN2C(=O)N3OS(=O)(=O)O)o1 [Compound 707, (2S,5R)-2-(5-amino-1,3,4-oxadiazol-2-yl)-7-oxo-1,6-diazabicyclo[3.2.1]octan-6-yl hydrogen sulfate] | more active than Avibactam |
| NCC(O)c1nnc([C@@H]2CC[C@@H]3CN2C(=O)N3OS(=O)(=O)O)o1 (stereo partly drawn) [Compound 715, (2S,5R)-2-(5-(2-amino-1-hydroxyethyl)-1,3,4-oxadiazol-2-yl)-7-oxo-1,6-diazabicyclo[3.2.1]octan-6-yl hydrogen sulfate] | more active than Avibactam |
| O=C1N2C[C@@H](CC[C@H]2c2nnc(N3CCNCC3)s2)N1OS(=O)(=O)O [Compound 797, (2S,5R)-7-oxo-2-(5-(piperazin-1-yl)-1,3,4-thiadiazol-2-yl)-1,6-diazabicyclo[3.2.1]octan-6-yl hydrogen sulfate] | more active than Avibactam |
| N=C(N)N[C@H]1C[C@H](c2nnc([C@@H]3CC[C@@H]4CN3C(=O)N4OS(=O)(=O)O)o2)C1 [Compound 748, (2S,5R)-2-(5-((1r,3S)-3-guanidinocyclobutyl)-1,3,4-oxadiazol-2-yl)-7-oxo-1,6-diazabicyclo[3.2.1]octan-6-yl hydrogen sulfate] | more active than Avibactam |
| O=C1N2C[C@@H](CC[C@H]2c2nnc([C@@H]3CNCCN3)o2)N1OS(=O)(=O)O [Compound 778, (2S,5R)-7-oxo-2-(5((S)-piperazin-2-yl)-1,3,4-oxadiazol-2-yl)-1,6-diazabicyclo[3.2.1]octan-6-yl hydrogen sulfate] | more active than Avibactam |
